In patent US20230310643A1, “EXTRACORPOREAL CLEARING TRAPS BASED ON INVERSE ELECTRON DEMAND DIELS-ALDER CYCLOADDITION FOR (PRE)-TARGETED THERAPY AND DIAGNOSTICS” (RIGSHOSPITALET, priority 2020, published 2023):
Where a name gives a salt, the structure may show the parent alone.

Key:
[1] = Trapping of TCO-KS254 from PBS solution by tetrazine-agarose columns, eluate titrated with [111In]8; conditions: for % TE mean ± SD, 2nd evaluation, TCO-KS254: repeated 9 days after first evaluation, columns stored at 4° C.; for % TE mean ± SD, 2nd evaluation, TCO-KS254 / % TE mean ± SD, 1st evaluation, TCO-KS254: n = 2; for % TE mean ± SD, 1st evaluation, TCO-KS254: trapping efficiency, single pass, 100 μg/mL in PBS, 0.5 mL/min; for Trapping efficiencies of TCO-KS254 polymer compared with resins with shorter or no linker (tetrazines 1, 3 and 5): comparison in words, longer linkers
Description: (§1) Tetrazine-agarose columns, two for each tetrazine, each prepared from 33 mg of dry NHS-agarose as described above (bed volume approx. 0.25 mL), and a control column prepared from tetrazine-free agarose, were equilibrated with 2-3 bed volumes of PBS. Antibody TCO-CC49 (approx. 1 TCO groups per 20 kDa molecular weight) or polymer TCO-KS254 (approx. 1 TCO group per 5 kDa molecular weight) were dissolved in PBS with to a mass concentration of 100 μg/mL. Aliquots of these solutions (0.4 mL) were pumped through the tetrazine-agarose columns at 0.5 mL/min pumping speed using an infusion pump (AL-1000, World Precision Instruments). When all solution had entered the resin bed, an aliquot of PBS (0.4 mL) was immediately added on top of it and pumped through the column at 0.5 mL/min. Total eluate (total volume approx. 0.8 mL) was collected and the amount of TCO-CC49 or TCO-KS254 was determined by ^111In-tetrazine ([^111In]8) titration.
(§2) For each column, trapping of both TCO-CC49 and TCO-KS254 was tested, and the column was rinsed with 2-3 volumes of PBS between tests. For pairs of columns with the same tetrazine, the order of testing (TCO-CC49 first or TCO-KS254 first) for one column was opposite to the order of testing for another column.
(§3) An aliquot of each trapping column eluate (6 μL) was mixed with an equal volume of 10 μM [111In]8 solution. Resulting mixtures were shaken at 37° C. for at least 1 hour to ensure full consumption of reactive TCO moieties. Then NuPage LDS Sample buffer was added to all mixtures according to the supplier's instructions, samples were heated for 10 min at 70° C. and applied on the NuPAGE 4-12% Bis-Tris SDS-PAGE gels. SDS-PAGE was run in MES-SDS buffer at 150V for 40-45 min. Separation was monitored by running SeeBlue® Plus2 Pre-Stained Protein Standard along with radiolabeled polymer samples. Control mixtures of 6 μL of [^111In]8 solution with 6 μL of PBS and reference mixtures of 6 μL of [^111In]8 solution and 6 μL of 50 μg/mL solutions of TCO-CC49 or TCO-KS254 were prepared and processed in the same manner. Developed gels were exposed against phosphor storage screens (PerkinElmer Multisensitive), which were then read in the Cyclone Plus phosphorimager (Packard Instruments, USA). Autoradiograms were quantified using Optiquant 3.0 software (Packard Instruments). Molecular weight reference ladder from the photo of the same gel aligned and merged to the autoradiogram is shown to the left in FIG. 8. Radioactivity found in the section of the gel corresponding to molecular weights of 60 kDa and above (using SeeBlue standards as reference) was considered polymer-bound or antibody-bound.
(§4) Trapping efficiency (TE) was calculated according to the formula:
(§5) % TE=100%×(1−% BTz/% BnoTz),
(§6) where % BTz is the percentage of polymer/antibody bound ^111In activity in the eluate collected from a column with tetrazine-conjugated agarose, while % BnoTz is the percentage of polymer/antibody bound ^111In activity in the eluate collected from a control column with tetrazine-free agarose.
(§7) For each column, evaluation of trapping efficiency for TCO-CC49 and TCO-KS254 was repeated 9 days after the first evaluation. In between evaluations, the columns were stored at 4° C. in phosphate-buffered saline with 0.1% vol/vol of ProClin™ 150 (Sigma-Aldrich).

TCO-CC49 = assay: Trapping of TCO-CC49 from PBS solution by tetrazine-agarose columns, eluate titrated with [111In]8; conditions: n = 2; for % TE mean ± SD, 2nd evaluation, TCO-CC49: repeated 9 days after first evaluation, columns stored at 4° C.; for % TE mean ± SD, 1st evaluation, TCO-CC49: trapping efficiency, single pass, 100 μg/mL in PBS, 0.5 mL/min
Description: as §1, §2, §3, §4, §5, §6, §7

[2] = Dissolution of amino-tetrazine in phosphate-buffered saline; assay type: physicochemical; conditions: PBS, 120 mM NaCl, 10 mM phosphate buffer pH 7.4
Description: Amino-tetrazine (1-6) was dissolved in phosphate-buffered saline (PBS, 120 mM NaCl, 10 mM phosphate buffer pH 7.4) to a concentration of 4 mM (tetrazine 5 could only be dissolved to a concentration of 2.7 mM). This solution was added to dry NHS-activated agarose resin (Pierce/Thermo Fisher Scientific) at the ratio of 1 mL solution per 60 mg resin. The resin was shaken in a plastic tube with a filter frit for 2-3 h at room temperature, then tetrazine solution was removed by vacuum filtration, and the resin was washed 3 times with PBS at the same mL-per-mg resin ratio. After that, Tris-HCl buffer (0.5M, pH 7.4) was added to the resin, the resin was shaken for 2-3 h at room temperature or overnight at 4° C. and washed 3 times with PBS. Control resin (tetrazine-free quenched agarose) was prepared in the same way, but pure PBS without amino-tetrazines was used for the initial incubation.

Compound | % TE mean ± SD, 2nd evaluation, TCO-KS254 [1] | % TE mean ± SD, 1st evaluation, TCO-KS254 [1] | % TE mean ± SD, 2nd evaluation, TCO-CC49 (TCO-CC49) | % TE mean ± SD, 1st evaluation, TCO-CC49 (TCO-CC49) | Trapping efficiencies of TCO-KS254 polymer compared with resins with shorter or no linker (tetrazines 1, 3 and 5) [1] | Concentration to which the tetrazine could be dissolved [2]
NCc1ccc(-c2nncnn2)cc1.O=C(O)C(F)(F)F [Tetrazine 3, (4-(1,2,4,5-Tetrazin-3-yl)phenyl)methanaminium trifluoroacetate] | 78 ± 1% | 93 ± 10% | 96 ± 0.4% | 99 ± 1^ % | – | –
NCCOCCOCCOCCOCCOCCOCCOCCOCCOCCOCCOCCNC(=O)CCCC(=O)NCc1ccc(-c2nncnn2)cc1 [Tetrazine 4, 37,41-dioxo-41-((4-(1,2,4,5-Tetrazin-3-l)benzyl)amino)-3,6,9,12,15,18,21,24,27,30,33-undecaoxa-36-azahentetracontan-1-aminium trifluoroacetate] | 56 ± 2% | 75 ± 0.2% | 92 ± 0.4% | 96 ± 6^ % | lower trapping efficiencies | –
NCCCCCCCC(=O)Nc1ccc(-c2nnc(-c3ccccn3)nn2)nc1.O=C(O)C(F)(F)F [Tetrazine 5, 8-amino—N-(6-(6-(pyridin-2-yl)-1,2,4,5-tetrazin-3-yl)pyridin-3-yl)octanamide 2,2,2-trifluoroacetate] | 67 ± 0.3% | 85 ± 5% | 89 ± 3^ % | 98 ± 0.4% | – | 2700 µM
NCCOCCOCCOCCOCCOCCOCCOCCOCCOCCOCCOCCNC(=O)CCCC(=O)Nc1ccc(-c2nnc(-c3ccccn3)nn2)nc1.O=C(O)C(F)(F)F [Tetrazine 6, 37,41-dioxo-41-((6-(6-(pyridin-2-yl)-1,2,4,5-tetrazin-3-yl)pyridin-3-yl)amino)-3,6,9,12,15,18,21,24,27,30,33-undecaoxa-36-azahentetracontan-1-aminium trifluoroacetate] | 50 ± 6% | 64 ± 0% | 72 ± 1^ % | 93 ± 7^ % | lower trapping efficiencies | –
